In patent US12569457B2, “Coated beta hydroxybutyric acid crystal and methods for producing the same” (NANJING NUTRABUILDING BIO-TECH CO., LTD., priority 2021, dated 2026):

Experiment: Stability test of coated BHB free acid crystal pellets/granules vs BHB free acid crystal at 25° C./60% RH (moisture and dipolymer content)
Type: physicochemical
Experimental: The coated BHB free acid crystal pellets/granules were subjected to a controlled temperature of 25° C./60% RH. The products were subjected to stability testing at the following time intervals: 0 time, 3 months, 6 months, 9 months, and 12 months.
The preparation method of such coated BHB free acid crystal pellets/granules includes the following steps: • (1) Wet granulation: Mix 3 kg of BHB free acid crystals and 0.05 kg of microcrystalline fiber, add 0.06 kg of water for wet granulation to obtain wet materials. The stirring motor rotating speed of the wet granulator is adjusted to 45 r/min, the speed of the shearing head is 800 r/min and the feeding speed of the binder is 5 r/min; • (2) Extrusion: Extrude the wet material obtained in step (1) by the extruder with the sieve plate aperture of 0.8 mm, to obtain strip materials with the same diameter. The screw speed of the extruder is adjusted to 150 r/min. […] Obtain strip materials with the same diameter; • (3) Spheronization: Sphere the strip materials obtained in step (2) at the high speed through the spheronization device to get pellets/granules of the same size and good roundness. The rotation speed of the spheronization device is adjusted to 1000 r/min and the time of spheronization is 6 min; • (4) Drying: Dry the pellets/granules prepared in step (3) to get BHB free acid crystal pellets/granules. The drying temperature is adjusted to 35° C. and the drying time is 25 min; • (5) Coating: Coating the BHB free acid crystal pellets/granules prepared in step (4) by Wurster coater with coating material, which is dissolved in water or ethanol at a solid content of 20% for use. The air inlet speed of the Wurster coater is 25 Hz and the coating temperature is 38° C., and the feeding speed of the coating liquid is 2 r/min. Drying for 15 min after coating is completed to obtain the coated BHB free acid crystal.The coated BHB free acid crystal pellets/granules were subjected to a controlled temperature of 25° C./60% RH. The products were subjected to stability testing at the following time intervals: 0 time, 3 months, 6 months, 9 months, and 12 months.

In the case of CC(O)CC(=O)O (stereo not drawn) [BHB Free Acid Crystal, beta hydroxybutyric acid], the “Dipolymer Content” value (0 time) is reported as 0.38%, the “Moisture Content” value (0 time) is reported as 0.50% and the “Dipolymer Content” value (3 months) is reported as 1.42%. For the same compound, the “Moisture Content” value (3 months) was 2.14%, the “Dipolymer Content” value (6 months) was 4.29% and the “Moisture Content” value (6 months) was 10.63%. For the same compound, the “Dipolymer Content” value (9 months) was 10.65%, the “Moisture Content” value (9 months) was 18.16% and the “Dipolymer Content” value (12 months) was 29.07%. For the same compound, the “Moisture Content” value (12 months) was 29.97%.
